Assay: Model experiments with 99Tc complex kept at pH 1
Type: physicochemical
Settings: complex with 99Tc; kept at pH 1 for days

[O]=[Tc]12(=[O])(=[O])[N]3CC[N]1CC[N]2CC3 [Compound 1, [TcO3(tacn)]^+]
hydrolysis at pH 1: without significant hydrolysis

Reference: patent publication US8961924B2, “Metal complexes” (University of Zurich, priority 2008, dated 2015)
